Earlier results on 3 compounds are cited in patent US20110039804A1, “Composition of Risedronate and Vitamin D3” (LANDSTEINER SCIENTIFIC, S.A. de C.V., priority 2006, published 2011).

The structures appear in SMILES notation. Where two headings read alike, the source gives them in different places.

The subject of data set [1] is patients with Paget's disease.
Setting [2] is: Paget's disease, 35 mg daily for two months.

With `CC(O)(P(=O)(O)O)P(=O)(O)O` [etidronate], the “Patients with normalized serum alkaline phosphatase concentration” value in data set [1] (Paget's disease, control group, etidronate 400 mg/day for 6 months) is recorded as 11%.

Take `O=P(O)(O)C(O)(Cc1cccnc1)P(=O)(O)O` [risedronate, 3-pyridil-1-hydroxyethylyden-1,1-bisphosphonic acid]: in data set [1] (setting [2]), the deoxypyridinoline/urinary creatinine ratio result was “Significantly reduced” and the hydroxyproline/urinary creatinine ratio result was “Significantly reduced”. Further, the new fractures result in data set [1] (Paget's disease, 35 mg daily for two months, x-rays before and after 6 months) is recorded as “no new fractures”. Also, in data set [1] (Paget's disease, daily dose of 35 mg risedronate for two months), the “Patients with normalized serum alkaline phosphatase concentration” value is 77%. For the same compound, the “dimension of lithic lesions in the axial and appendicular skeleton” value in data set [1] (Paget's disease, x-rays before and after 6 months of treatment) is reported as “Reduced”. Moreover, the “Patients staying on biochemical remission” value in data set [1] (during the 18 months following the two-month treatment) is “Fifty-three”. In addition, where the note is “humans”, the “average distribution volume in a state of balance” value is 6.3 L/kg. The Tmax result (single oral administration, studied range 2.5 mg to 30 mg single dose) is recorded as “approximately 1 hour”.

For `O=P([O-])(O)C(O)(Cc1cccnc1)P(=O)(O)O.[Na+]` [sodium risedronate], the systemic metabolism result (in vivo) was “no evidence of systemic metabolism”. For the setting “tablet administered with food”, the “effect of food on oral bioavailability” value is “reduces”. Where the note is “tablet, oral”, the mid oral bioavailability is on record as 0.63%.
